According to ChEMBL document CHEMBL1145280, “Control of hepatitis C: a medicinal chemistry perspective” (J Med Chem, 2005):
Blank lines part the entries; values can stand above or below the compound they belong to. Positions of bridges follow the written chain, without caps; N, C: chain ends. Non-standard residues stand in square brackets, D forms with d. Residues, ends and D or L forms follow the SMILES beside them. Chains are numbered I, II in the order given. *: point of attachment. Dip = N[C@H](C(=O)O)C(c1ccccc1)c1ccccc1; X1 = O=C(O)C(=O)[C@H](CC(F)F)N*; Cha = N[C@@H](CC1CCCCC1)C(=O)O; Ahx = NCCCCCC(=O)O

Columns and labels:
NS3 [1] = molecular target: T1, NS3 (Hepatitis C virus, UniProt A3EZJ3); assay: Inhibitory constant against hepatitis C virus NS3 protease; design: species or system Hepacivirus hominis
T1 sequence (A3EZJ3 whole entry): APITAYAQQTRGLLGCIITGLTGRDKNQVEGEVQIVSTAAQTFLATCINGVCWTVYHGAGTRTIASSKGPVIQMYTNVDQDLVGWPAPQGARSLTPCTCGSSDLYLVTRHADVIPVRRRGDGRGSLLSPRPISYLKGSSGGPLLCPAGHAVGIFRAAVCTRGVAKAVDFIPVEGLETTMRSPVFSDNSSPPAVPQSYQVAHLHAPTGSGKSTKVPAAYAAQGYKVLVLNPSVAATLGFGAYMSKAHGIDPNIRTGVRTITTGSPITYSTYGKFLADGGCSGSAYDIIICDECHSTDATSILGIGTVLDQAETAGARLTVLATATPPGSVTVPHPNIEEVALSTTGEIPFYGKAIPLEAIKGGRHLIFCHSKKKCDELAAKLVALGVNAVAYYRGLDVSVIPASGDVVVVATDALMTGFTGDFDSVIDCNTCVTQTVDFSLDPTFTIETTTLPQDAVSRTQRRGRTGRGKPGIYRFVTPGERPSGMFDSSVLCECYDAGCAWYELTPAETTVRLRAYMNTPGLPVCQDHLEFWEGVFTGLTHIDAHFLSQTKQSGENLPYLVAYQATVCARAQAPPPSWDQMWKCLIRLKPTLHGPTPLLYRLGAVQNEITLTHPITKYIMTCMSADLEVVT

NS3 [2] = molecular target: T1, NS3; assay: Inhibitory concentration against hepatitis C virus helicase; range 0.6-0.7; design: species or system Hepacivirus hominis
Genome polyprotein = Genome polyprotein (Hepatitis C virus genotype 1a (isolate 1) (HCV), UniProt P26664); assay: Inhibitory concentration against hepatitis C virus NS2/3 protease; design: species or system Hepacivirus hominis
Genome polyprotein, sequence (P26664 810-1026 limits assumed): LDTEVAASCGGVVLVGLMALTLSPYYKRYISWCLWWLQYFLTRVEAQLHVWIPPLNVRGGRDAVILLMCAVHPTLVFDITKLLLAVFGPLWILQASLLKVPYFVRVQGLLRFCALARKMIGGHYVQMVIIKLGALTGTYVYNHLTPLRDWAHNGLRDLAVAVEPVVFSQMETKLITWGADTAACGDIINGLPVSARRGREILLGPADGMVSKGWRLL
Genome polyprotein, sequence (P26664 1027-1657 limits assumed): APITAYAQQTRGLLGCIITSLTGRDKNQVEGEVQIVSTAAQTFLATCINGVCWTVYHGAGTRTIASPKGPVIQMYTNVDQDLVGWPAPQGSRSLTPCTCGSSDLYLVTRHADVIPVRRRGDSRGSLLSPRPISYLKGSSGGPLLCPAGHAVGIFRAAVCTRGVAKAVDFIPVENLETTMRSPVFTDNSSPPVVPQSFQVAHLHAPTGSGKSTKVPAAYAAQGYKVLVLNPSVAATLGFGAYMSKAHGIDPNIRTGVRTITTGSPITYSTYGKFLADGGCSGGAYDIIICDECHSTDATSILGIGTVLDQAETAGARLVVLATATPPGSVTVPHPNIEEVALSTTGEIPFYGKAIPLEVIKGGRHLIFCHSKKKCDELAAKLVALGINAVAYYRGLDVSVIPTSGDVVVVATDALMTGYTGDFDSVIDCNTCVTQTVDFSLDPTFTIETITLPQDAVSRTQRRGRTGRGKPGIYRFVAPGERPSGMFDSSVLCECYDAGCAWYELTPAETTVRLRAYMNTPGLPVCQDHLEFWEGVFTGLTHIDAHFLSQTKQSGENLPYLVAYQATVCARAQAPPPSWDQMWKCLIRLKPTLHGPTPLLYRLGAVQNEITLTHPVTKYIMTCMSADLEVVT

NS3 [3] = molecular target: T1, NS3; assay: Inhibitory concentration against hepatitis C virus NS4A binding region of NS3 protease; design: species or system Hepacivirus hominis
[4] = test system: Internal ribosome entry site (IRES); assay: Inhibitory concentration against hepatitis C virus internal ribosomal entry site; assay type: nucleic-acid assay, Hepacivirus hominis
[5] = molecular target: T2, Hepatitis C virus NS4A protein (Hepatitis C virus, UniProt D2K2A8); assay: Inhibitory concentration against hepatitis C virus NS4A active site; design: species or system Hepacivirus hominis
T2 sequence (D2K2A8 whole entry): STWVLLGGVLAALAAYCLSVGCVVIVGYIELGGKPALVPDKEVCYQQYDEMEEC

[6] = molecular target: T2, Hepatitis C virus NS4A protein; assay: Inhibitory concentration against hepatitis C NS4A protease; design: species or system Hepacivirus hominis
NS3 (Hepatitis C virus) = NS3 (Hepatitis C virus) (UniProt A3EZJ3); assay: Percent inhibition against hepatitis C virus helicase at 25 ug/mL; Range 6-13; conditions: Hepacivirus hominis
NS3 (Hepatitis C virus), sequence (A3EZJ3 as listed by the source): as the sequence (A3EZJ3 whole entry) above

- Ki (NS3 [1]): 600 nM
Compound: Ac-DEMEEC-OH

- IC50 (NS3 [2]): 700 nM
Compound: CN1CCN(CCCN2c3ccccc3Sc3ccc(C(F)(F)F)cc32)CC1 [TRIFLUOPERAZINE]

Compound: Ac-RGGSVVIVGRIILSGRK-OH
- IC50 (Genome polyprotein): 3400 nM

Compound: CC[C@H](C)[C@H](NC(=O)[C@H](CCCNC(=N)N)NC(=O)CNC(=O)[C@@H](NC(=O)[C@@H](NC(=O)[C@@H](NC(=O)[C@@H](NC(=O)[C@H](CS)NC(=O)CCCCCNC(=O)CCCCCNC(=O)[C@H](CS)NC(=O)[C@H](CS)NC(=O)[C@@H](NC(=O)[C@@H](NC(=O)[C@H](CC(=O)O)NC(=O)[C@@H](N)CCC(=O)O)C(C)C)C(C)C)C(C)C)C(C)C)[C@@H](C)CC)C(C)C)C(=O)N[C@H](C(=O)N[C@@H](CC(C)C)C(=O)N[C@@H](CO)C(=O)NCC(=O)N[C@@H](CCCCN)C(=O)O)C(C)C (H-EDVVCC[Ahx][Ahx]CVVIVGRIVLSGK-OH)
- IC50 (NS3 [3]): 600 nM

- IC50 (NS3 [3]): 3000 nM
Compound: CC[C@H](C)[C@H](NC(=O)[C@H](CCCN=C(N)N)NC(=O)CNC(=O)[C@@H](NC(=O)[C@@H](NC(=O)[C@@H](NC(=O)[C@@H](NC(=O)[C@@H](N)CS)C(C)C)C(C)C)[C@@H](C)CC)C(C)C)C(=O)N[C@H](C(=O)N[C@@H](CC(C)C)C(=O)N[C@@H](CO)C(=O)NCC(=O)N[C@@H](CCCCN)C(=O)NCCCC[C@H](NC(=O)CCCCCNC(=O)[C@H](CS)NC(=O)[C@H](CS)NC(=O)[C@@H](NC(=O)[C@@H](NC(=O)[C@H](CC(=O)O)NC(=O)[C@@H](N)CCC(=O)O)C(C)C)C(C)C)C(=O)O)C(C)C (I: H-CVVIVGRIVLSGK / II: H-EDVVCC[Ahx]K-OH; amide I:C-II:8)

Compound: H-KGSVVIVGRIILSGRK-OH
- IC50 (Genome polyprotein): 5700 nM

- Ki (NS3 [1]): 10 nM
Compound: CC(=O)N[C@@H](CC(=O)O)C(=O)N[C@@H](CCC(=O)O)C(=O)N[C@H](C(=O)N[C@@H](CCC(=O)O)C(=O)N[C@@H](CC1CCCCC1)C(=O)N[C@@H](CC(F)F)C(=O)C(=O)O)C(c1ccccc1)c1ccccc1 (Ac-DE[Dip]E[Cha]-X1)

Compound: CC(C)COC(=O)N[C@@H](CCC(=O)O)C(=O)N[C@@H](CC(C)C)C(=O)N[C@@H](CC(F)F)C(=O)NCCc1ccc(C(=O)O)cc1Cl
- Ki (NS3 [1]): 600 nM

Compound: CN(C)c1ccc(C(=O)c2ccc(N(C)C)cc2)cc1 [MICHLER'S KETONE]
- IC50 [4]: > 10000 nM

- IC50 [4]: > 10000 nM
Compound: Nc1ccc(Nc2ccc(N)cc2)cc1

- Ki (NS3 [1]): 2200 nM
Compound: O=C(O)[C@H](Cc1ccccc1)N(Cc1ccc(-c2cc3ccccc3o2)s1)C(=O)c1ccc(Cl)cc1Cl

- IC50 [4]: 2860 nM
Compound: Nc1ccc2nc3ccc(N)cc3[s+]c2c1 [THIONIN ACETATE]

Compound: CC[C@H](C)[C@H](NC(=O)[C@H](CCCN=C(N)N)NC(=O)CNC(=O)[C@@H](NC(=O)[C@@H](NC(=O)[C@@H](NC(=O)[C@@H](NC(=O)[C@H](CS)NC(=O)CCCCCNC(=O)[C@H](CS)NC(=O)[C@H](CS)NC(=O)[C@@H](NC(=O)[C@@H](NC(=O)[C@H](CC(=O)O)NC(=O)[C@@H](N)CCC(=O)O)C(C)C)C(C)C)C(C)C)C(C)C)[C@@H](C)CC)C(C)C)C(=O)N[C@H](C(=O)N[C@@H](CC(C)C)C(=O)N[C@@H](CO)C(=O)NCC(=O)N[C@@H](CCCCN)C(=O)N[C@@H](CCCCN)C(=O)O)C(C)C (H-EDVVCC[Ahx]CVVIVGRIVLSGKK-OH)
- IC50 (NS3 [3]): 3000 nM

Compound: O=C(O)[C@H](Cc1ccccc1)N(Cc1cccc(C(F)(F)F)c1)C(=O)c1ccc(Cl)cc1Cl
- Ki (NS3 [1]): 2200 nM

- IC50 [5]: 600 nM
Compound: H-SLVIRGVIV-OH

Compound: H-CVVIVGRIVLSGK-OH
- IC50 [6]: 200 nM

- IC50 [4]: 1000 nM
Compound: CCN(CC)c1ccc2[o+]c3cc(C)c(N)cc3nc2c1

- inhibition (NS3 (Hepatitis C virus)): 13%
Compound: O=C(CCCCC(=O)Nc1nc2ccccc2[nH]1)Nc1nc2ccccc2[nH]1

- IC50 [5]: 200 nM
Compound: H-KGSLVIRGVIVVCK-OH

- IC50 (NS3 [3]): 200 nM
Compound: CC[C@H](C)[C@@H](NC(=O)[C@H](NC(=O)[C@@H](CC(C)C)NC(=O)[C@@H](CO)NC(=O)CNC(=O)[C@H](CCCCN)NC(=O)CCCCCNC(=O)CCCCCNC(=O)[C@H](CS)NC(=O)[C@H](CS)NC(=O)[C@@H](NC(=O)[C@@H](NC(=O)[C@H](CC(=O)O)NC(=O)[C@@H](N)CCC(=O)O)C(C)C)C(C)C)C(C)C)C(=O)N[C@H](CCCN=C(N)N)C(=O)NCC(=O)N[C@@H](C(=O)N[C@@H](C(=O)N[C@@H](C(=O)N[C@@H](C(=O)N[C@H](CS)C(=O)O)C(C)C)C(C)C)[C@@H](C)CC)C(C)C

- IC50 (NS3 [3]): 200 nM
Compound: CC[C@H](C)[C@H](NC(=O)CNC(=O)[C@H](CCCN=C(N)N)NC(=O)[C@@H](NC(=O)[C@@H](NC(=O)[C@H](CC(C)C)NC(=O)[C@H](CO)NC(=O)CNC(=O)[C@H](CCCCN)NC(=O)CCCCCNC(=O)[C@H](CS)NC(=O)[C@H](CS)NC(=O)[C@@H](NC(=O)[C@@H](NC(=O)[C@H](CCC(=O)O)NC(=O)[C@@H](N)CC(=O)O)C(C)C)C(C)C)C(C)C)[C@@H](C)CC)C(=O)N[C@H](C(=O)N[C@H](C(=O)N[C@@H](CS)C(=O)N[C@@H](CCCCN)C(=O)O)C(C)C)C(C)C (H-DEVVCC[Ahx]KGSLVIRGIVVCK-OH)

- Ki (NS3 [1]): 40 nM
Compound: CC(=O)N[C@@H](CC(=O)O)C(=O)N[C@@H](CCC(=O)O)C(=O)N[C@H](C(=O)N[C@@H](CCC(=O)O)C(=O)N[C@@H](CC1CCCCC1)C(=O)N[C@@H](CS)C(=O)O)C(c1ccccc1)c1ccccc1 (Ac-DE[Dip]E[Cha]C-OH)

- IC50 [4]: > 10000 nM
Compound: CN(C)c1ccc2c(c1)Sc1cc(N(C)C)ccc1N2C(=O)c1ccccc1
